This is an account of results in the supplement of paper PMC10307832.

Experiment in all cases: relative viability (nuclei count vs DMSO), 5 days (fraction); higher = more cells survive
Compound in experiment [1]: CO[C@@H]1[C@H](N(C)C(=O)c2ccccc2)C[C@H]2O[C@]1(C)n1c3ccccc3c3c4c(c5c6ccccc6n2c5c31)C(=O)NC4 [Midostaurin] + COc1cc2c(Oc3ccc(NC(=O)C4(C(=O)Nc5ccc(F)cc5)CC4)cc3F)ccnc2cc1OCCCN1CCOCC1 [Foretinib] (partner 0.25 µM)
The method in brief: (§1)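 The day after seeding in 1536-well plates, lung cancer cell lines were treated by pin tool with a single drug, or with a fixed anchor-drug dose together with five library-drug doses (not always all listed) in √10 steps. After 5 days, a combined fix-and-stain solution (final 0.05% Triton X-100, 1% formaldehyde, 1 ug/ml Hoechst) was added. Nuclei counted on 4× images gave relative viability as treated counts over vehicle counts, reported as the median of duplicate plates.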

Compound in experiment [2]: COc1cc(-c2nn([C@H]3CC[C@H](N4CCN(C(C)=O)CC4)CC3)c3ncnc(N)c23)ccc1NC(=O)c1cc2ccccc2n1C + CC(=O)c1c(C)c2cnc(Nc3ccc(N4CCNCC4)cn3)nc2n(C2CCCC2)c1=O [Palbociclib] (partner 0.5 µM)
A digest of the protocol:
as §1

Compound in experiment [3]: COc1cc(-c2nn([C@H]3CC[C@H](N4CCN(C(C)=O)CC4)CC3)c3ncnc(N)c23)ccc1NC(=O)c1cc2ccccc2n1C + COc1cccc2cc(-c3nc([C@H]4CC[C@H](C(=O)O)CC4)n4ncnc(N)c34)[nH]c12 [OSI-027] (partner 0.5 µM)
The method in brief:
as §1

Compound in experiment [4]: COc1cc(-c2nn([C@H]3CC[C@H](N4CCN(C(C)=O)CC4)CC3)c3ncnc(N)c23)ccc1NC(=O)c1cc2ccccc2n1C + CS(=O)(=O)N1CCN(Cc2cc3nc(-c4cccc5[nH]ncc45)nc(N4CCOCC4)c3s2)CC1 [Pictilisib] (partner 1 µM)
The method in brief: as §1

Compound in experiment [5]: COc1cc(-c2nn([C@H]3CC[C@H](N4CCN(C(C)=O)CC4)CC3)c3ncnc(N)c23)ccc1NC(=O)c1cc2ccccc2n1C + O=C(c1cc(Cc2n[nH]c(=O)c3ccccc23)ccc1F)N1CCN(C(=O)C2CC2)CC1 [Olaparib] (partner 8 µM)
The method in brief: as §1

On to NCI-H838, for which the relative viability in experiment [1] (first compound 0.01 µM) came to 1.05; in experiment [1] (first compound 0.03162 µM), 0.939; in experiment [1] (first compound 0.1 µM) it was 0.759; in experiment [1] (first compound 0.3162 µM), 0.497; in experiment [2] (first compound 0.0128 µM), 0.222; in experiment [2] (first compound 0.04048 µM), 0.208. In addition, the relative viability in experiment [2] (first compound 0.128 µM) was found to be 0.216; in experiment [2] (first compound 1.28 µM), 0.181; in experiment [3] (first compound 0.0128 µM), 0.38; in experiment [3] (first compound 0.04048 µM), 0.375; in experiment [3] (first compound 0.128 µM), 0.422; in experiment [3] (first compound 1.28 µM) it was 0.359. Moreover, the relative viability in experiment [4] (first compound 0.0128 µM) was determined as 0.403; in experiment [4] (first compound 0.04048 µM), 0.397; in experiment [4] (first compound 0.128 µM), 0.38; in experiment [4] (first compound 1.28 µM), 0.338; in experiment [5] (first compound 0.0128 µM), 0.799; in experiment [5] (first compound 0.04048 µM), 0.807. Besides, the relative viability in experiment [5] (first compound 0.128 µM) amounted to 0.741; in experiment [5] (first compound 1.28 µM), 0.471.
NCI-H1355: the relative viability was determined as 1.02 in experiment [1] (first compound 0.01 µM); 0.913 in experiment [1] (first compound 0.03162 µM); 0.817 in experiment [1] (first compound 0.1 µM); 0.971 in experiment [1] (first compound 0.3162 µM); 0.448 in experiment [2] (first compound 0.0128 µM); 0.402 in experiment [2] (first compound 0.04048 µM). Besides, the relative viability amounted to 0.416 in experiment [2] (first compound 0.128 µM); 0.415 in experiment [2] (first compound 1.28 µM); 0.47 in experiment [3] (first compound 0.0128 µM); 0.315 in experiment [3] (first compound 0.04048 µM); 0.507 in experiment [3] (first compound 0.128 µM); 0.433 in experiment [3] (first compound 1.28 µM). Also, the relative viability in experiment [4] (first compound 0.0128 µM) amounted to 0.584; in experiment [4] (first compound 0.04048 µM), 0.295; in experiment [4] (first compound 0.128 µM), 0.412; in experiment [4] (first compound 1.28 µM), 0.406; in experiment [5] (first compound 0.0128 µM) it was 0.798; in experiment [5] (first compound 0.04048 µM) it was 0.831. The results for the relative viability in experiment [5] (first compound 0.128 µM) and in experiment [5] (first compound 1.28 µM) were 0.756 and 0.684, respectively.
As to NCI-H1395, the relative viability in experiment [1] (first compound 0.01 µM) is 1.12; in experiment [1] (first compound 0.03162 µM) it was 1.07; in experiment [1] (first compound 0.1 µM), 0.992; in experiment [1] (first compound 0.3162 µM), 1.1; in experiment [2] (first compound 0.0128 µM), 0.656; in experiment [2] (first compound 0.04048 µM), 0.647. In addition, the relative viability is 0.589 in experiment [2] (first compound 0.128 µM); 0.497 in experiment [2] (first compound 1.28 µM); 0.573 in experiment [3] (first compound 0.0128 µM); 0.674 in experiment [3] (first compound 0.04048 µM); 0.723 in experiment [3] (first compound 0.128 µM); 0.556 in experiment [3] (first compound 1.28 µM). The relative viability came to 0.578 in experiment [4] (first compound 0.0128 µM); 0.711 in experiment [4] (first compound 0.04048 µM); 0.512 in experiment [4] (first compound 0.128 µM); 0.486 in experiment [4] (first compound 1.28 µM); 0.437 in experiment [5] (first compound 0.0128 µM); 0.466 in experiment [5] (first compound 0.04048 µM). The relative viability in experiment [5] (first compound 0.128 µM) stood at 0.442; in experiment [5] (first compound 1.28 µM), 0.434.
Take NCI-H1437: the relative viability in experiment [1] (first compound 0.01 µM) is 1.26; in experiment [1] (first compound 0.03162 µM) it was 1.09; in experiment [1] (first compound 0.1 µM), 1.22; in experiment [1] (first compound 0.3162 µM), 1.22; in experiment [2] (first compound 0.0128 µM), 0.302; in experiment [2] (first compound 0.04048 µM), 0.326. The relative viability in experiment [2] (first compound 0.128 µM) is 0.281; in experiment [2] (first compound 1.28 µM), 0.283; in experiment [3] (first compound 0.0128 µM), 0.796; in experiment [3] (first compound 0.04048 µM), 0.992; in experiment [3] (first compound 0.128 µM) it was 0.861; in experiment [3] (first compound 1.28 µM) it was 0.838. For the same cell line, the relative viability in experiment [4] (first compound 0.0128 µM) came out at 0.413; in experiment [4] (first compound 0.04048 µM) it was 0.514; in experiment [4] (first compound 0.128 µM) it was 0.406; in experiment [4] (first compound 1.28 µM), 0.314; in experiment [5] (first compound 0.0128 µM) it was 0.689; in experiment [5] (first compound 0.04048 µM) it was 0.636. In addition, the relative viability in experiment [5] (first compound 0.128 µM) turned out to be 0.628; in experiment [5] (first compound 1.28 µM) it was 0.595.
For NCI-H1650, the relative viability stood at 1.16 in experiment [1] (first compound 0.01 µM); 1.11 in experiment [1] (first compound 0.03162 µM); 0.911 in experiment [1] (first compound 0.1 µM); 1.19 in experiment [1] (first compound 0.3162 µM); 0.342 in experiment [2] (first compound 0.0128 µM); 0.409 in experiment [2] (first compound 0.04048 µM). Further, the relative viability in experiment [2] (first compound 0.128 µM) came out at 0.306; in experiment [2] (first compound 1.28 µM), 0.268; in experiment [3] (first compound 0.0128 µM), 0.54; in experiment [3] (first compound 0.04048 µM) it was 0.707; in experiment [3] (first compound 0.128 µM), 0.492; in experiment [3] (first compound 1.28 µM), 0.577. The relative viability was 0.548 in experiment [4] (first compound 0.0128 µM); 0.651 in experiment [4] (first compound 0.04048 µM); 0.513 in experiment [4] (first compound 0.128 µM); 0.547 in experiment [4] (first compound 1.28 µM); 0.822 in experiment [5] (first compound 0.0128 µM); 0.894 in experiment [5] (first compound 0.04048 µM). The relative viability in experiment [5] (first compound 0.128 µM) is 0.804; in experiment [5] (first compound 1.28 µM), 0.731.
With NCI-H1651, the relative viability stood at 0.882 in experiment [1] (first compound 0.01 µM); 0.819 in experiment [1] (first compound 0.03162 µM); 0.764 in experiment [1] (first compound 0.1 µM); 0.683 in experiment [1] (first compound 0.3162 µM); 0.522 in experiment [2] (first compound 0.0128 µM); 0.539 in experiment [2] (first compound 0.04048 µM). The relative viability amounted to 0.513 in experiment [2] (first compound 0.128 µM); 0.49 in experiment [2] (first compound 1.28 µM); 0.664 in experiment [3] (first compound 0.0128 µM); 0.748 in experiment [3] (first compound 0.04048 µM); 0.531 in experiment [3] (first compound 0.128 µM); 0.644 in experiment [3] (first compound 1.28 µM). Further, the relative viability in experiment [4] (first compound 0.0128 µM) was 0.489; in experiment [4] (first compound 0.04048 µM), 0.525; in experiment [4] (first compound 0.128 µM) it was 0.483; in experiment [4] (first compound 1.28 µM) it was 0.43; in experiment [5] (first compound 0.0128 µM), 0.19; in experiment [5] (first compound 0.04048 µM), 0.177. The values for the relative viability in experiment [5] (first compound 0.128 µM) and in experiment [5] (first compound 1.28 µM) were 0.205 and 0.165, respectively.
For the cell line NCI-H1666, the relative viability in experiment [1] (first compound 0.01 µM) stood at 0.881; in experiment [1] (first compound 0.03162 µM), 0.954; in experiment [1] (first compound 0.1 µM), 0.786; in experiment [1] (first compound 0.3162 µM), 0.754; in experiment [2] (first compound 0.0128 µM) it was 0.678; in experiment [2] (first compound 0.04048 µM), 0.661. In addition, the relative viability in experiment [2] (first compound 0.128 µM) was found to be 0.6; in experiment [2] (first compound 1.28 µM), 0.622; in experiment [3] (first compound 0.0128 µM) it was 0.795; in experiment [3] (first compound 0.04048 µM) it was 0.789; in experiment [3] (first compound 0.128 µM), 0.764; in experiment [3] (first compound 1.28 µM) it was 0.784. The relative viability in experiment [4] (first compound 0.0128 µM) came to 0.521; in experiment [4] (first compound 0.04048 µM), 0.367; in experiment [4] (first compound 0.128 µM) it was 0.394; in experiment [4] (first compound 1.28 µM), 0.397; in experiment [5] (first compound 0.0128 µM), 0.763; in experiment [5] (first compound 0.04048 µM), 0.793. For the same cell line, the relative viability in experiment [5] (first compound 0.128 µM) came out at 0.793; in experiment [5] (first compound 1.28 µM), 0.827.
